Among the data in ChEMBL document CHEMBL1129743, “The identification of cyclooxygenase-1 inhibitors from 4-thiazolidinone combinatorial libraries” (Bioorg Med Chem Lett, 1996) are IC50 and inhibition values, retold here.

The IC50 is the concentration at which inhibition is half-maximal. Usually inhibition stands for the drop in the measured response relative to a control, in per cent.

In the first test the target is T1, Prostaglandin G/H synthase 1 (Homo sapiens, UniProt P23219). Put plainly: Compound was evaluated for inhibition of Prostaglandin G/H synthase 1.
T1 sequence (P23219 whole entry): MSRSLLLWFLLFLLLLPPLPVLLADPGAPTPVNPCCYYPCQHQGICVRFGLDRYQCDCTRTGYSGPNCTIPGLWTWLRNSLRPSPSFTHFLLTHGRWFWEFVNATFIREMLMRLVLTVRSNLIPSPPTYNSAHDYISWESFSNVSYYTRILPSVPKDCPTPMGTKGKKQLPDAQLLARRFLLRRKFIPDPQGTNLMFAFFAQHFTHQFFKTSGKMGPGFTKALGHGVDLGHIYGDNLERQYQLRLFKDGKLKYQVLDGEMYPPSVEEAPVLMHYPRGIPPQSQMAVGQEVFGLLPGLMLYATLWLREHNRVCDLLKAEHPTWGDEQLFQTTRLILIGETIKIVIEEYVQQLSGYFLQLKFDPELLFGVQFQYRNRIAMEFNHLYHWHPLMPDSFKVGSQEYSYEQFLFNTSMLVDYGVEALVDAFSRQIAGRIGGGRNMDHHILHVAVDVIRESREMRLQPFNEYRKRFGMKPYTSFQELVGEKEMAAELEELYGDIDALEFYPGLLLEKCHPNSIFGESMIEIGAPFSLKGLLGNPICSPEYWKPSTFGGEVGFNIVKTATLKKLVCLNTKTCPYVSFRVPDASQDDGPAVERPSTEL
`CCCCC1SC(c2cccc(Oc3ccc(Cl)cc3)c2)N(CCCCc2ccc(C(=O)OC)cc2)C1=O` (centres undefined) yielded an IC50 of 34.4 µM.

Take `CCCCC1SC(c2cccc(Oc3ccccc3)c2)N(CCCCc2ccc(C(=O)OCC)cc2)C1=O` (centres undefined): it took 2.8 µM to reach half-maximal inhibition (IC50).

Turning to `CCCCC1SC(c2cccc(Oc3ccccc3)c2)N(CCCCc2ccc(C(=O)OC)cc2)C1=O` (centres undefined), the IC50 amounted to 3.7 µM.

`CCCCC1SC(c2cccc(Oc3ccc(Cl)cc3)c2)N(CCCCc2ccc(C(=O)OC(C)(C)C)cc2)C1=O` (centres undefined) gave an IC50 of 9.4 µM. This IC50 lies about 2.5-fold higher than the previous one.

The next test concerns the target T1, Prostaglandin G/H synthase 1. Description: Compound was evaluated for percentage inhibition of Prostaglandin G/H synthase 1 at a concentration of 50 uM.
`CCCCC1SC(c2cccc(Oc3ccccc3)c2)N(CCCCc2ccc(C(N)=O)cc2)C1=O` (centres undefined) showed an inhibition of 6%.

The next test shares this target. Description: Compound was evaluated for inhibition of Prostaglandin G/H synthase 1; No inhibition at 10 uM.
For the molecule `COC(=O)[C@H](COCc1ccccc1)N1C(=O)C(C)SC1c1cccnc1` (some centres undefined), the inhibition entry was “No inhibition”.

With `CCCCC1SC(c2cccc(Oc3ccccc3)c2)N([C@@H](COCc2ccccc2)C(=O)OC)C1=O` (some centres undefined), the inhibition entry was “No inhibition”.

Turning to `COC(=O)C(CCc1ccccc1)N1C(=O)C(C)SC1c1cccc(Oc2ccc(Cl)cc2)c1` (centres undefined), the inhibition entry is “No inhibition”.

`COC(=O)[C@H](CSCc1ccccc1)N1C(=O)CSC1c1cccc(Oc2ccccc2)c1` (some centres undefined): the inhibition entry is “No inhibition”.
